The text below walks through data of US9434769B2, “Peptide compositions and methods for inhibiting herpesvirus infection” (priority 2009, dated 2016).

Like-named read-outs stand apart in the source and are kept apart here.

One series concerns Towne GFP strain of HCMV. The class given is cell-based, Human Cytomegalovirus (HCMV). As to conditions: for inhibition of viral infection: HFF cells, MOI 0.5, 48 hours post infection. As to the method:
The Towne strain of HCMV containing the Green Fluorescent Protein (GFP) expression cassette was obtained from Dr. Dan Streblow at the Oregon Health Science University and was propagated in human foreskin fibroblast (HFF) cells. Viral supernatants were collected, centrifuged to clear cell debris, and filtered through a 0.45 μm filter. HFF cells were grown in Dulbecco's modified Eagle medium (DMEM) supplemented with 10% fetal bovine serum (FBS), penicillin G (100 U/mL), streptomycin ([…]), and GLUTAMAX™ L-glutamine supplement (2 mM) from Invitrogen.
Human foreskin fibroblasts were seeded at the density of about 3.5×10^5 cells in each well of a 24-well plate about 24 hours prior to infection. The HFF cells were washed with 1×DPBS, and mock or virus infected for about 90 minutes at room temperature (RT) with the Towne GFP strain of HCMV at about 0.5 multiplicity of infection (MOI), preincubated with a range of concentrations of inhibitory peptides at about 37° C. for about 90 minutes. After the infection, virus mixture was removed and 10% FBS complete DMEM was added to each well and cells were incubated at about 37° C. for about 48 hours. GFP positive cells were visualized about 48 hours post infection by fluorescence microscopy and then quantified using flow cytometry. […] HFF cells were trypsinized, centrifuged, and resuspended in 1% FBS-Dulbecco's phosphate buffered saline (DPBS). GFP positive cells were quantified using flow cytometry (CYTOMICS FC 500 from Beckman Coulter, Fullerton, Calif.).
All of the synthetic peptides were tested at the following concentrations: about 100 μM, 50 μM, 25 μM, 10 μM, 5 μM, 2.5 μM, 1.25 μM, 0.625 μM, 0.3125 μM, 0.156 μM, and 0.078 μM.

Another series deals with HSV-1 McIntyre strain. In words: Inhibition of HSV-1 infection of Vero cells (Crystal Violet staining). The series is classed as cell-based, Herpes Simplex Virus 1 (HSV-1). As to conditions: MOI 0.001, peptide 2.5 to 100 μM, 48 hours. How it is done:
FIG. 6 illustrates inhibition of HSV-1 infection by HCMV gB peptides. To evaluate the ability of newly designed HCMV gB-specific peptide to inhibit HSV-1 infection, Vero cells were infected for about 90 minutes at room temperature with HSV-1 (McIntyre strain; MOI=0.001) that was preincubated with a range of concentrations of four different synthetic peptides at about 37° C. for about 90 minutes. Each treatment was done in triplicate, where A=media, B=HSV-1 MOI of 0.001, C=100 μM peptide and virus, D=50 μM peptide and virus, E=25 μM peptide and virus, F=10 μM peptide and virus, G=5 μM peptide and virus, H=2.5 μM peptide and virus. HCMV gB peptides (Peptide 174-200 (SEQ ID NO: 3), Peptide 233-263 (SEQ ID NO: 4), and Peptide 264-291 (SEQ ID NO: 5)) that are within domain II were inhibitory against HSV-1 infection. Peptide 476-494 (SEQ ID NO: 7) corresponds to trimerization domain of HCMV gB that contains extended α-helices important in the formation of HCMV gB homotrimer during fusion of HCMV virion and lipid membrane of the host cell. Overlapping inhibitory HSV-1 peptides span regions 496-510 and 501-515 of HSV-1 gB (SEQ ID NO: 8) and are analogous to HCMV gB Peptide 476-494 (SEQ ID NO: 7).
To evaluate the ability of HCMV gB peptides to inhibit infection by HSV-1, Vero cells were plated at a density of about 1.5×10^5 cells in each well of a 24 well-plate 24 hours prior to infection. The cells were washed and mock- or virus-infected for about 90 minutes at room temperature with HSV-1 McIntyre strain (ATCC) of about 0.001 MOI preincubated with a range of concentrations of four different synthetic peptides at about 37° C. for about 90 minutes. After exposure to the virus, the virus mixture was removed and the cells were overlayed with 2% FBS MEM containing 1% methylcellulose. Cells were incubated for about 48 hours at about 37° C. After about 48 hours, the cells were fixed, stained with Crystal Violet, and air dried.
In FIG. 6, each treatment was done in triplicate, where A=media, B=HSV-1 MOI of 0.001, C=100 μM peptide and virus, D=50 μM peptide and virus, E=25 μM peptide and virus, F=10 μM peptide and virus, G=5 μM peptide and virus, H=2.5 μM peptide and virus. […] Peptide 476-494 (SEQ ID NO: 7) corresponds to the trimerization domain of HCMV gB, which contains extended α-helices important in the formation of HCMV gB homotrimer during fusion of HCMV virion and lipid membrane of the host cell. Overlapping inhibitory HSV-1 peptides that span regions 496-510 and 501-515 of the HSV-1 gB protein (SEQ ID NO: 8) are analogous to HCMV gB peptide 476-494 (SEQ ID NO: 7). As predicted, HCMV Peptide 476-494 (SEQ ID NO: 7) worked best at the concentration of about 2.5 μM.

The test system of a further series is HCMV TRpMIA. Briefly: Inhibition of HCMV TRpMIA infection of HFF cells (IE-1/IE-2 positive cells). The series is classed as cell-based, Human Cytomegalovirus (HCMV). As to conditions: for significance of inhibition of infection: vs non-treated infected control, 24 hours post-infection. As to the method: In order to assess the ability of the peptides of the present invention to inhibit a clinically significant HCMV (HCMV TRpMIA), Peptide 174-200 (SEQ ID NO:3), Peptide 233-263 (SEQ ID NO: 4), and Peptide 264-291 (SEQ ID NO: 5), were tested for inhibition of HCMV TRpMIA infection of HFF cells under the assay conditions similar to these described in Example 2 for the Towne strain of HCMV, above. In particular, HFF cells were plated in 96-well plates at a density of about 10,000 cells-per-well about 24 hours […]. Individual inhibitory peptides were evaluated against 0.5 MOI HCMV TRpMIA preincubated with various concentrations in the range of about 0.078 micromolar to about 100 micromolar. The results obtained from these assays are shown in FIG. 13, FIG. 14, and FIG. 15 for Peptide 174-200, Peptide 233-263, and Peptide 264-291, respectively. The degree of HCMV infection was determined by evaluating the number of cells expressing immediate-early 1 (IE-1) or IE-2 HCMV proteins 24 hours post-infection. Treatments resulting in significant reductions in the number of cells that were positive for IE 1, IE-2, or both, compared to non-treated control HCMV infected cells, are denoted by a * (p<0.05), ** (p<0.01), and *** (p<0.001, one-way ANOVA and Tukey's post test). Variants and derivatives of Peptide 233-263 (SEQ ID NO: 4) also were prepared and tested in the same assay. The sequences of the tested variants and derivatives are shown in Table 4, with additions or modifications from SEQ ID NO: 4 shown in boldface type.

For series [1] the following is noted: pregnancy; cited from earlier work.
The next series has as its system HIV-1. Particulars: cited from earlier work.

“WHSRGSTWLYRETANLNAMLTITTARSKYPY [Peptide 233-263]”: in the series on Towne GFP strain of HCMV (100 μM, MOI 0.5, 48 hours post-infection), the “inhibition of infection seen in fluorescent and bright light images (FIG. 4)” value is on record as “effectively inhibited infection of the cells”. In addition, the figures for the “inhibition of viral infection” value in the series with Towne GFP strain of HCMV (peptide 2.5 μM), in the series on Towne GFP strain of HCMV (peptide 50 μM) and in the series with Towne GFP strain of HCMV (peptide 100 μM) were “about 60%”, “about 92%” and “about 97%”, respectively. Besides, the “inhibition of HSV-1 infection” value with HSV-1 McIntyre strain was “inhibited HSV-1 infection”. Besides, the “significance of inhibition of infection” value is “* (* (p<0.05))” in the series with HCMV TRpMIA (5 micromolar); “*** (*** (p<0.001, one-way ANOVA and Tukey's post test))” in the series with HCMV TRpMIA (10 micromolar); “*** (*** (p<0.001, one-way ANOVA and Tukey's post test))” in the series with HCMV TRpMIA (25 micromolar); “*** (*** (p<0.001, one-way ANOVA and Tukey's post test))” in the series on HCMV TRpMIA (50 micromolar); “*** (*** (p<0.001, one-way ANOVA and Tukey's post test))” in the series on HCMV TRpMIA (100 micromolar). In addition, the “extent of inhibition of infection” value in the series with HCMV TRpMIA (50 to 100 micromolar) is “almost complete inhibition”.
For enfuvirtide, in series [1], the “crossing of the placenta” value is reported as “does not cross the placenta”. Besides, in the series on HIV-1, the “vertical transmission of HIV-1 in pregnancy” value is “prevents vertical transmission of HIV-1 in pregnancy”.
